Data set [1] in a line: Study of approximate solubility in water. The format is physicochemical. The conditions noted are these: room temperature, dissolution determined by the naked eye. As for the experimental part: About 2.0 mg of samples were weighed and added into 1.5 mL glass vials, water was gradually added using pipetting gun, and the mixture was dissolved by sonication as appropriate. The test was conducted at room temperature and the dissolution was determined by the naked eye, and the approximate solubility results are shown in Table 10.

Data set [2] in a line: Study of polycrystalline forms (solution suspension crystallization, XRPD). The class given is physicochemical. As to conditions: 13 single or mixed solvents of Table 7, stirred 2 days at 50° C. Here is the method: Then, samples of the aforementioned suspensions were stirred for 2 days on a constant-temperature heating stirrer at 50° C. The reaction system was cooled to room temperature, filtered and concentrated to remove the solvent, to give samples, and XRPD testing was performed on the samples.

Data set [3] is described as follows: Equilibrium solubility experiment for biological media and pH buffers. The format is physicochemical. As for the experimental part: The taken samples were centrifuged, the supernatant of the samples was taken and diluted by a proper time after pH was determined, and the concentration of the supernatant was determined by UPLC.
Diluent: acetonitrile:water (1:1)
Mobile phase A: 0.1% aqueous FA solution
Mobile phase B: 0.1% FA ACN/MeOH (1:1) solution
Two parts of control solutions were prepared in parallel, and labeled STD #1 and STD #2, respectively.
The control solution STD #1 was taken and diluted by 1, 5, 10, 100, 1000, 2000 times, and recorded as linear solutions L1, L2, L3, L4, L5 and L6. The sample diluted by 2000 times was recorded as LOQ.

Data set [4] is described as follows: Study of hygroscopicity (25° C., 80% relative humidity, 24 h). The format is physicochemical. The conditions noted are these: relative humidity 80%. An excerpt: Calculation: weight gain %=(m3−m2)/(m2−m1)×100%
Data set [5] is described as follows: Study of solid stability (accelerated conditions, XRPD). The format is physicochemical. The conditions noted are these: 40° C./75% RH 2 and 3 months; 60° C./75% RH 1 and 2 months. As for the experimental part:
The samples were placed at (40° C./75% RH) for 2 months and 3 months and at (60° C./75% RH) for 1 month and 2 months, and the placed samples were characterized by XRPD. The test results were compared with the initial test results of 0 days.

Data set [6] is described as follows: In vivo pharmacokinetic study in SD rats. The conditions noted are these: rat, plasma, SD male rats, oral, 30 mg/kg. As for the experimental part: The test compound was mixed with 5% dimethyl sulfoxide/10% polyoxyethylene stearate/85% aqueous solution, and the mixture was vortexed and sonicated to prepare a 3 mg/mL clear solution for later use. SD male rats aged 7 to 10 weeks were selected and orally administered with a dose of the candidate compound at 30 mg/kg. Whole blood was collected at certain time points, and plasma was separated. The drug concentration was measured by LC-MS/MS, and pharmacokinetic parameters were calculated using Phoenix WinNonlin software (Pharsight, USA).

In brackets after ≈: the same amount, converted by molar mass. Several values for one entry are separate records, joined by “and”; a condition that tells them apart may be missing. Equal entries are not always repeated. Where two headings read alike, the source gives them in different places.

The text below walks through data of US12358927B2, “IRAK4 inhibitor crystal and preparation method therefor” (CHIA TAI TIANQING PHARMACEUTICAL GROUP CO., LTD., priority 2020, dated 2025).

With `COC(=O)N1CCN([C@H]2CC[C@H](Nc3nc(Nc4cnn(C5CCOCC5)c4)nc4snc(C)c34)CC2)CC1` [Compound of formula (I)], the “Approximate solubility” value in data set [1] was less than 1000 µg/mL.

As for `COC(=O)N1CCN([C@H]2CC[C@H](Nc3nc(Nc4cnn(C5CCOCC5)c4)nc4snc(C)c34)CC2)CC1` [Crystalline form A of the compound of formula (II)], in data set [2], the “crystalline form after suspension stirring (XRPD)” value was “all samples were the crystalline form A of the compound of formula (II)”. Further, the “Approximate solubility” value in data set [1] was greater than 100000 µg/mL. The “solubility description (Chinese pharmacopoeia)” value in data set [3] (at pH=4.50) was “minimally soluble”; in data set [3] (at pH=5.00 and FaSSIF), “very slightly soluble”; in data set [3] (at pH=6.00 and FeSSIF) it was “slightly soluble”; in data set [3] (at pH=6.80 and pH=7.40), “almost insoluble or insoluble”. Further, the “Determination result (hygroscopicity)” value in data set [4] is listed as “Slightly hygroscopic (0.2% to 2% weight gain)”. For the same compound, in data set [4] (average of two samples), the “Weight gain % Average value” was 1.3%. Besides, in data set [4] (single samples No. 1 and 2), the Weight gain % is 1.34% and 1.22%. Besides, in data set [5], the “crystal form under all stability conditions” value was “unchanged”.

As for `COC(=O)N1CCN([C@H]2CC[C@H](Nc3nc(Nc4cnn(C5CCOCC5)c4)nc4snc(C)c34)CC2)CC1`, the solubility at 24 h was 1.3 mg/mL (≈ 2.34 mM) in data set [3] (aqueous buffer, thermodynamic from solid, pH = 6.00 buffer, 37° C., 24 h, pH (24 h) 5.12, white suspension, read-out: Solubility (mg/mL) _24 hr); 10.5 mg/mL (≈ 18.9 mM) in data set [3] (pH 1.77, simulated gastric fluid, thermodynamic from solid, SGF, 37° C., 24 h, pH (24 h) 1.77, opalescent and opaque, read-out: Solubility (mg/mL) _24 hr); greater than 10 mg/mL in data set [3] (pH 2.00 and pH 3.8 buffers, 37 °C, simulated gastric fluid, thermodynamic from solid, at pH=1.00, pH=2.00, pH=3.8, water and SGF, read-out: solubility); 10.2 mg/mL (≈ 18.4 mM) in data set [3] (pH 3.8, aqueous buffer, thermodynamic from solid, pH = 3.80 buffer, 37° C., 24 h, pH (24 h) 2.61, opalescent and opaque, read-out: Solubility (mg/mL) _24 hr); 10.3 mg/mL (≈ 18.5 mM) in data set [3] (pH 4.5, aqueous buffer, thermodynamic from solid, pH = 4.50 buffer, 37° C., 24 h, pH (24 h) 4.12, white suspension, read-out: Solubility (mg/mL) _24 hr); 1.32 mg/mL (≈ 2.38 mM) in data set [3] (pH 4.75, thermodynamic from solid, FeSSIF, 37° C., 24 h, pH (24 h) 4.75, white suspension, read-out: Solubility (mg/mL) _24 hr). The solubility at 24 h was 0.31 mg/mL (≈ 0.558 mM) in data set [3] (pH 5.5, aqueous buffer, thermodynamic from solid, pH = 5.50 buffer, 37° C., 24 h, pH (24 h) 5.26, white suspension, read-out: Solubility (mg/mL) _24 hr); 0.14 mg/mL (≈ 0.252 mM) in data set [3] (pH 6.04, thermodynamic from solid, FaSSIF, 37° C., 24 h, pH (24 h) 6.04, white suspension, read-out: Solubility (mg/mL) _24 hr); 0.05 mg/mL (≈ 0.09 mM) in data set [3] (pH 6.8, aqueous buffer, thermodynamic from solid, pH = 6.80 buffer, 37° C., 24 h, pH (24 h) 6.57, white suspension, read-out: Solubility (mg/mL) _24 hr); 0.0012 mg/mL (≈ 0.00216 mM) in data set [3] (pH 7.4, aqueous buffer, thermodynamic from solid, pH = 7.40 buffer, 37° C., 24 h, pH (24 h) 7.07, white suspension, read-out: Solubility (mg/mL) _24 hr); 10.5 mg/mL (≈ 18.9 mM) in data set [3] (simulated gastric fluid, thermodynamic from solid, pH = 1.00 buffer, 37° C., 24 h, pH (24 h) 1.11, opalescent and opaque, read-out: Solubility (mg/mL) _24 hr); 10.5 mg/mL (≈ 18.9 mM) in data set [3] (simulated gastric fluid, thermodynamic from solid, pH = 2.00 buffer, 37° C., 24 h, pH (24 h) 1.90, opalescent and opaque, read-out: Solubility (mg/mL) _24 hr). In addition, the solubility at 24 h in data set [3] (water, pH 2.29, water, thermodynamic from solid, H2O, 37° C., 24 h, pH (24 h) 2.29, opalescent and opaque, read-out: Solubility (mg/mL) _24 hr) amounted to 9.12 mg/mL (≈ 16.4 mM). Also, the bioavailability in data set [6] (read-out: Bioavailability F (%)) came out at 62%. Also, the AUC(0-t) in data set [6] (read-out: Area under plasma concentration-time curve AUC0-last) is 10.6 µM·h. The Cmax in data set [6] (read-out: Peak concentration Cmax) turned out to be 1580 nM. In addition, in data set [6] (read-out: Time to peak Tmax), the Tmax amounted to 3 h.
